Where “and” joins values, the source holds several entries; their conditions need not be identical. Equal entries are not always repeated.
What was measured:
[1] = system: microspores of wheat cultivar Chris; experiment: Optimization of 2,4-D concentration, embryoid yield and green plants (Example 4); format: cell-based
Procedure: (§1) Pretreatment of Spikes. After removing the lower nodal section, the collected tillers are placed in an autoclaved sterile flask, containing 50 ml of sterile (autoclaved) distilled water and preferably 0.1% (w/v) 2-HNA and 10^−6 to 10^−5 M 2,4-D. The open end of a plastic bag (thin-walled, grocery store bag) is then wrapped around the neck of the flask and sealed around the neck with masking tape to prevent microbial contamination and excessive loss of water. The flask is then placed in an incubator set at the desired stress temperature, optionally 33° C., but the temperature employed may be higher or lower. The optimum period of pretreatment varies with the genotype, but is preferably from between about 0.5 hours and about 72 hours, depending on the temperature. A presently preferred temperature pretreatment regime is from about 48 hours to about 72 hours at a temperature of about 33° C. The flask containing tillers can also be stored in a refrigerator at 4° C. for up to 1 month before subjecting the microspores to temperature stress treatment. It is important that after the temperature stress treatment, the tillers should not be stored in a refrigerator at 4° C. because the microspore viability goes down sharply.
(§2) Culture of isolated microspores. Isolated microspores are cultured in liquid NPB 98-1 medium or liquid NPB-99 medium, preferably liquid NPB-99 medium, as a suspension culture. An aliquot of 2 ml media per 35 mm×10 mm Petri dish, or 5 ml media per 60 mm×15 mm Petri dish, at a density of approximately 1.5×10^4 microspores per ml is effective. Immature ovaries are added to the culture at a density of one per ml of medium immediately preceding the incubation. Ovaries are aseptically picked out from fresh and disinfected spikes. Ovaries of all genotypes are effective for the present invention, but the ovaries from varieties Chris or Pavon 76 are preferred for embryogenesis of all wheat varieties tested. The Petri dish is sealed with parafilm and incubated in the dark at 27° C.
(§3) When embryoids reach the size of 1 to 2 mm, they are transferred aseptically to solid 190-2 or 190-2(b) medium, preferably 190-2(b) medium, at a density of 25-30 embryoids in each 100×15 mm Petri dish. They are incubated under continuous fluorescent light at room temperature (22° C.). In approximately two weeks, green plantlets develop and are ready for transfer to soil. Green plants are raised in the greenhouse, much like plants grown from seeds. If plants appear to be haploid, colchicine can be applied to induce chromosome doubling. Seeds produced on any plants are instantly homozygous, and so can immediately be used for rapid evaluation and selection in breeding, for analyses in genetics research, or for selection and evaluation of transformants in biotechnology.
Experiments were conducted to optimize the amount of 2,4-D utilized to enhance androgenesis and regeneration of green plants. Plant material was treated in accordance with the methods set forth in Example 1, except as described herein. Tillers of wheat cultivar Chris were treated with 2,4-D at concentrations of 0.2, 22.1, or 221 mg/l plus a fixed dose of 2-HNA at 100 mg/l. Two tillers were utilized per treatment.
Tillers in flasks with 2-HNA, plus different 2,4-D doses were placed at 33° C. for 70 hours before blending to release microspores. Microspores were cultured in 60×15 mm Petri dishes, each containing 5 ml medium NPB 98-1 plus 1 mg/l 2,4-D and incubated at 27° C. The regeneration medium was 190-2. Five fresh, live, immature Chris ovaries per Petri dish were included in each Petri dish.

[2] = system: Pavon 76 microspores; experiment: Optimization of 2,4-D concentration, embryoid yield, green plants and doubled haploids (Example 5); format: cell-based, wheat
Procedure: as §1, §2, §3
(§4) Experiments were conducted to optimize the amount of 2,4-D utilized to induce androgenesis and regeneration of green plants. Plant material was treated in accordance with the methods set forth in Example 1, except as described herein. Spikes of wheat cultivar Pavon 76 were treated with 2,4-D at concentrations of 0, 0.2, 2.2, or 22.1 mg/l plus a fixed dose of 2-HNA at 100 mg/l. Two spikes were utilized per treatment.
Spikes were incubated in sterile flasks with 2-HNA plus different doses of 2,4-D. The flasks were incubated at 33° C. for 46 hours before blending to release microspores. Microspores were cultured in 6-cm Petri dishes, each containing 5 ml medium NPB 98-1 plus 0 or 0.2 mg/l 2,4-D and incubated at 27° C. The regeneration medium was 190-2. Five fresh, live, immature Chris ovaries per Petri dish were included in each Petri dish.

[3] = system: microspores of wheat cultivar Chris; experiment: Effect of 2-HNA concentration on embryoid induction and green plant regeneration (Example 2); format: cell-based
Procedure: as §1, §2, §3
Experiments were conducted to evaluate the effect of 2-HNA on embryoid induction and green plant regeneration. Plant material was treated in accordance with the methods set forth in Example 1, except as described herein. Tillers of wheat cultivar Chris were treated with 2-HNA at concentrations of 0, 1, 10 or 100 mg/l. Three tillers were utilized for each concentration of 2-HNA.
Chris tillers were placed in sterile flasks and incubated with 2-HNA dissolved in sterile water at 33° C. for 66 hours before blending to release the microspores. As an option to ease the work schedule, newly sampled tillers may be incubated with 2-HNA at 4° C. for up to 72 hrs prior to the 33° C. treatment. Isolated microspores were cultured in 60×15 mm Petri dishes each containing 5 ml of medium NPB 98-1, including 1 mg/l phenylacetic acid (PAA) and incubated at 27° C. The regeneration medium was 190-2. Five fresh, live, Chris ovaries per Petri dish were included in each Petri dish.

[4] = system: microspores of wheat cultivar Pavon 76; experiment: Optimization of 2-HNA concentration, embryoid yield and green plants (Example 3); format: cell-based
Procedure: as §1, §2, §3
as §4, with “2-HNA” for “2,4-D”, “stimulate” for “induce”, “Tillers” for “Spikes”, “100, 500” for “0.2, 2.2,”, “1000” for “22.1 mg/l plus a fixed dose of 2-HNA at 100”, “tillers” for “spikes”
Tillers were placed in sterile flasks containing 50 ml 2-HNA solution and incubated at 33° C. for 46 hours before blending to release microspores. Microspores were again cultured in 60×15 mm Petri dishes, each containing 5 ml medium NPB 98-1 and incubated at 27° C. The regeneration medium was 190-2. Five fresh, live, immature Pavon 76 ovaries per Petri dish were included in each Petri dish.

[5] = pretreatment 2,4-D 0.2 mg/l + 2-HNA 100 mg/l, mean
[6] = pretreatment 2,4-D 0.2 mg/l + 2-HNA 100 mg/l, single repeats
[7] = pretreatment 2,4-D 22.1 mg/l + 2-HNA 100 mg/l, mean
[8] = pretreatment 2,4-D 22.1 mg/l + 2-HNA 100 mg/l, single repeats
[9] = pretreatment 2,4-D 2.2 mg/l + 2-HNA 100 mg/l, mean
[10] = pretreatment 2,4-D 2.2 mg/l + 2-HNA 100 mg/l, single repeats
[11] = 2-HNA 100 mg/l, % of embryoids transferred to regeneration medium, single repeats
[12] = pretreatment 2-HNA 100 mg/l, 2,4-D 0 mg/l, mean

SMILES: O=C(O)COc1ccc(Cl)cc1Cl [2,4-D, 2,4-dichlorophenoxyacetic acid]
- 2,4-D concentration during the pretreatment at which number of induced embryoids and percentage of regenerated green plants were highest ([1]; plus 2-HNA 100 mg/l): 1 mg/L
- Number of embryoids ([1]; pretreatment 2,4-D 0.2 mg/l + 2-HNA 100 mg/l, 33° C. 70 hours, induction medium 2,4-D 1 mg/l, single repeats): 2088 and 2107
- Number of embryoids [1, 5]: 2098
- green plant (%) [1, 5]: 92%
- green plant (%) [1, 6]: 83% and 100%
- Number of embryoids ([1]; pretreatment 2,4-D 22.1 mg/l + 2-HNA 100 mg/l, 33° C. 70 hours, induction medium 2,4-D 1 mg/l, single repeats): 1908 and 1156
- Number of embryoids [1, 7]: 1532
- green plant (%) [1, 7]: 71%
- green plant (%) [1, 8]: 63% and 79%
- Number of embryoids ([1]; pretreatment 2,4-D 221 mg/l + 2-HNA 100 mg/l, 33° C. 70 hours, induction medium 2,4-D 1 mg/l, single repeats): 0
- Number of embryoids ([1]; pretreatment 2,4-D 221 mg/l + 2-HNA 100 mg/l, mean): 0
- 2,4-D concentration during the pretreatment at which number of induced embryoids and percentage of regenerated green plants were highest ([2]; plus 2-HNA 100 mg/l): 2.2 mg/L
- Number of embryoids ([2]; pretreatment 2,4-D 0.2 mg/l + 2-HNA 100 mg/l, induction medium 2,4-D 0.2 mg/l, single repeats): 1200 and 1121
- Number of embryoids [2, 5]: 1161
- green plant (%) [2, 5]: 9%
- green plant (%) [2, 6]: 9%
- Number of embryoids ([2]; pretreatment 2,4-D 2.2 mg/l + 2-HNA 100 mg/l, induction medium 2,4-D 0.2 mg/l, single repeats): 1675 and 1634
- Number of embryoids [2, 9]: 1655
- green plant (%) [2, 9]: 30%
- Doubled-Haploid % [2, 10]: 50% and 38%
- green plant (%) [2, 10]: 31% and 28%
- Number of embryoids ([2]; pretreatment 2,4-D 22.1 mg/l + 2-HNA 100 mg/l, induction medium 2,4-D 0.2 mg/l, single repeats): 1119 and 1012
- Number of embryoids [2, 7]: 1066
- green plant (%) [2, 7]: 18%
- Doubled-Haploid % [2, 8]: 17%

SMILES: O=C(O)c1cccnc1O [2-HNA, 2-hydroxynicotinic acid]
- number of induced embryoids, dependence on concentration ([3]; 2-HNA 0, 1, 10 or 100 mg/l): increases with increasing concentrations of 2-HNA
- percentage of regenerated green plants, dependence on concentration ([3]; 2-HNA 0, 1, 10 or 100 mg/l): does not significantly differ
- green plant (%) ([3]; 2-HNA 1 mg/l, % of embryoids transferred to regeneration medium, single repeats): 100%
- Number of embryoids ([3]; 2-HNA 1 mg/l, mean): 118
- green plant (%) ([3]; 2-HNA 1 mg/l, mean): 100%
- green plant (%) ([3]; 2-HNA 10 mg/l, % of embryoids transferred to regeneration medium, single repeats): 94% and 100%
- Number of embryoids ([3]; 2-HNA 10 mg/l, mean): 322
- green plant (%) ([3]; 2-HNA 10 mg/l, mean): 97%
- Number of embryoids ([3]; 2-HNA 100 mg/l, 33° C. 66 hours, single repeats (rep 1, rep 2)): 1258 and 1217
- green plant (%) [3, 11]: 100%
- Number of embryoids ([3]; 2-HNA 100 mg/l, mean): 1238
- green plant (%) ([3]; 2-HNA 100 mg/l, mean): 100%
- green plant (%) [4, 11]: 60% and 67%
- # embryoids ([4]; 2-HNA 100 mg/l, mean): 1356
- green plant (%) ([4]; 2-HNA 100 mg/l, mean): 63%
- green plant (%) ([4]; 2-HNA 500 mg/l, % of embryoids transferred to regeneration medium, single repeats): 33%
- # embryoids ([4]; 2-HNA 500 mg/l, mean): 66
- green plant (%) ([4]; 2-HNA 500 mg/l, mean): 33%
- green plant (%) ([4]; 2-HNA 1000 mg/l, % of embryoids transferred to regeneration medium, single repeats): 40% and 22%
- # embryoids ([4]; 2-HNA 1000 mg/l, mean): 768
- green plant (%) ([4]; 2-HNA 1000 mg/l, mean): 31%
- 2-HNA concentration at which number of induced embryoids and percentage of regenerated green plants were highest ([4]; tested 0, 100, 500 or 1000 mg/l): 100 mg/L
- Number of embryoids ([2]; pretreatment 2-HNA 100 mg/l, 2,4-D 0 mg/l, induction medium 2,4-D 0, 33° C. 46 hours, single repeats): 603 and 607
- Number of embryoids [2, 12]: 605
- green plant (%) [2, 12]: 19%
- green plant (%) ([2]; pretreatment 2-HNA 100 mg/l, 2,4-D 0 mg/l, single repeats): 13% and 25%
